Assays:
Assay type in all cases: in vivo
[1] = tested on: sedge, umbrella (small-flower umbrella sedge, Cyperus difformis); assay: Test B flooded paddy test, umbrella sedge; settings: Flood, 250 g ai/ha, applied to paddy water, 2-leaf stage, visual evaluation after 13 to 15 d
Summary of the method: (§1)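 Rating: 0 = no effect, 100 = complete control, visual, relative to untreated plants. Conditions: 2-leaf stage, 3 cm flood kept constant, compound put directly into water, 13–15 d greenhouse.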

[2] = tested on: foxtail, green (Setaria viridis); assay: Test A postemergence, green foxtail; settings: 0 to 100 scale
Excerpt: (§2) Seeds of plant species selected from barnyardgrass (Echinochloa crus-galli), kochia (Kochia scoparia), ragweed (common ragweed, Ambrosia elatior), ryegrass, Italian (Lolium multiflorum), foxtail, giant (Setaria faberii), foxtail, green (Setaria viridis), and pigweed (Amaranthus retroflexus) were planted into a blend of loam soil and sand and treated preemergence with a directed soil spray using test chemicals formulated in a non-phytotoxic solvent mixture which included a surfactant.
(§3) At the same time, plants selected from these weed species and also wheat (Triticum aestivum), corn (Zea mays), blackgrass (Alopecurus myosuroides), and galium (catchweed bedstraw, Galium aparine) were planted in pots containing the same blend of loam soil and sand and treated with postemergence applications of test chemicals formulated in the same manner. Plants ranged in height from 2 to 10 cm and were in the one- to two-leaf stage for the postemergence treatment. Treated plants and untreated controls were maintained in a greenhouse for approximately 10 d, after which time all treated plants were compared to untreated controls and visually evaluated for injury. Plant response ratings, summarized in Table A, are based on a 0 to 100 scale where 0 is no effect and 100 is complete control. A dash (-) response means no test result.

[3] = tested on: ryegrass, Italian (Lolium multiflorum); assay: Test A postemergence, Italian ryegrass; settings: 0 to 100 scale
Summary of the method: (§4)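 Ratings reflect visual comparison with untreated controls roughly 10 d after greenhouse application, 0 meaning no effect and 100 complete control. Treatment was by directed soil spray at planting or by spray onto one- to two-leaf plants in loam/sand pots.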

[4] = tested on: blackgrass (Alopecurus myosuroides); assay: Test A postemergence, blackgrass; settings: 0 to 100 scale
Summary of the method: as §4

[5] = tested on: ragweed (common ragweed, Ambrosia elatior); assay: Test A preemergence, ragweed; settings: 0 to 100 scale
Summary of the method: as §4

[6] = tested on: pigweed (Amaranthus retroflexus); assay: Test A postemergence, pigweed; settings: 0 to 100 scale
Summary of the method: as §4

[7] = tested on: barnyardgrass (Echinochloa crus-galli); assay: Test B flooded paddy test, barnyardgrass; settings: Flood, 250 g ai/ha, applied to paddy water, 2-leaf stage, visual evaluation after 13 to 15 d
Summary of the method: as §1

rice (Oryza sativa) = assay: Test B flooded paddy test, rice; settings: Flood, 250 g ai/ha, applied to paddy water, 2-leaf stage, visual evaluation after 13 to 15 d
Summary of the method: as §1

kochia (Kochia scoparia) [8] = assay: Test A postemergence, kochia; settings: 0 to 100 scale
Summary of the method: as §4

[9] = tested on: barnyardgrass (Echinochloa crus-galli); assay: Test A preemergence, barnyardgrass; settings: 0 to 100 scale
Summary of the method: as §4

[10] = tested on: foxtail, green (Setaria viridis); assay: Test A preemergence, green foxtail; settings: 0 to 100 scale
Excerpt: as §2, §3

[11] = tested on: pigweed (Amaranthus retroflexus); assay: Test A preemergence, pigweed; settings: 0 to 100 scale
Summary of the method: as §4

kochia (Kochia scoparia) [12] = assay: Test A preemergence, kochia; settings: 0 to 100 scale
Summary of the method: as §4

[13] = tested on: galium (catchweed bedstraw, Galium aparine); assay: Test A postemergence, galium; settings: 0 to 100 scale
Summary of the method: as §4

[14] = tested on: ducksalad (Heteranthera limosa); assay: Test B flooded paddy test, ducksalad; settings: Flood, 250 g ai/ha, applied to paddy water, 2-leaf stage, visual evaluation after 13 to 15 d
Summary of the method: as §1

corn (Zea mays) = assay: Test A postemergence, corn; settings: 0 to 100 scale
Summary of the method: as §4

[15] = tested on: ragweed (common ragweed, Ambrosia elatior); assay: Test A postemergence, ragweed; settings: 0 to 100 scale
Summary of the method: as §4

[16] = tested on: ryegrass, Italian (Lolium multiflorum); assay: Test A preemergence, Italian ryegrass; settings: 0 to 100 scale
Summary of the method: as §4

[17] = tested on: wheat (Triticum aestivum); assay: Test A postemergence, wheat; settings: 0 to 100 scale
Summary of the method: as §4

[18] = tested on: barnyardgrass (Echinochloa crus-galli); assay: Test A postemergence, barnyardgrass; settings: 0 to 100 scale
Summary of the method: as §4

Compound: CC(CCc1ccccc1)Nc1ncc(C(F)(F)F)c(N)n1 (stereo not drawn) [Compound 23]
- Plant response rating, Sedge, Umbrella (0 to 100 scale, 0 is no effect, 100 is complete control) [1]: 0
- Plant response rating, Foxtail, Green ([2]; 125 g ai/ha): 0
- Plant response rating, Foxtail, Green ([2]; 500 g ai/ha): 0
- Plant response rating, Ryegrass, Italian ([3]; 125 g ai/ha): 0
- Plant response rating, Ryegrass, Italian ([3]; 500 g ai/ha): 0
- Plant response rating, Blackgrass ([4]; 125 g ai/ha): 0
- Plant response rating, Blackgrass ([4]; 500 g ai/ha): 0
- Plant response rating, Ragweed ([5]; 125 g ai/ha): 0
- Plant response rating, Ragweed ([5]; 500 g ai/ha): 0
- Plant response rating, Pigweed ([6]; 125 g ai/ha): 0
- Plant response rating, Pigweed ([6]; 500 g ai/ha): 0
- Plant response rating, Barnyardgrass (0 to 100 scale, 0 is no effect, 100 is complete control) [7]: 0
- Plant response rating, Rice (0 to 100 scale, 0 is no effect, 100 is complete control) (rice (Oryza sativa)): 0
- Plant response rating, Kochia (kochia (Kochia scoparia) [8]; 125 g ai/ha): 0
- Plant response rating, Kochia (kochia (Kochia scoparia) [8]; 500 g ai/ha): 0
- Plant response rating, Barnyardgrass ([9]; 125 g ai/ha): 0
- Plant response rating, Barnyardgrass ([9]; 500 g ai/ha): 0
- Plant response rating, Foxtail, Green ([10]; 125 g ai/ha): 0
- Plant response rating, Foxtail, Green ([10]; 500 g ai/ha): 0
- Plant response rating, Pigweed ([11]; 125 g ai/ha): 0
- Plant response rating, Pigweed ([11]; 500 g ai/ha): 50
- Plant response rating, Kochia (kochia (Kochia scoparia) [12]; 125 g ai/ha): 0
- Plant response rating, Kochia (kochia (Kochia scoparia) [12]; 500 g ai/ha): 0
- Plant response rating, Galium ([13]; 125 g ai/ha): 0
- Plant response rating, Galium ([13]; 500 g ai/ha): 0
- Plant response rating, Ducksalad (0 to 100 scale, 0 is no effect, 100 is complete control) [14]: 0
- Plant response rating, Corn (corn (Zea mays); 125 g ai/ha): 0
- Plant response rating, Corn (corn (Zea mays); 500 g ai/ha): 0
- Plant response rating, Ragweed ([15]; 125 g ai/ha): 0
- Plant response rating, Ragweed ([15]; 500 g ai/ha): 0
- Plant response rating, Ryegrass, Italian ([16]; 125 g ai/ha): 0
- Plant response rating, Ryegrass, Italian ([16]; 500 g ai/ha): 0
- Plant response rating, Wheat ([17]; 125 g ai/ha): 0
- Plant response rating, Wheat ([17]; 500 g ai/ha): 0
- Plant response rating, Barnyardgrass ([18]; 125 g ai/ha): 0
- Plant response rating, Barnyardgrass ([18]; 500 g ai/ha): 0
